According to patent EP0429372A1, “2-Azolyl nicotinate derivatives as herbicides” (RHONE-POULENC AGROCHIMIE, priority 1989, dated 1991):

Experiments:
Format in all cases: in vivo
Zea mays = assay: Example C: selectivity test in major crops, post-emergence application; details: crop (Maïs), 24 days, score 0-5, 0 or 1 = selective; also: ranges in brackets are in %
Excerpt: (§1) Dans des pots de 7 x 7 x 8 cm remplis de terre agricole légère, on sème un nombre de graines déterminé en fonction de l'espèce végétale et de la grosseur de la graine.
(§2) On recouvre ensuite les graines d'une couche de terre d'environ 3 mm d'épaisseur et on laisse germer la graine jusqu'à ce qu'elle donne naissance à une plantule au stade convenable. Le stade de traitement pour les graminées est le stade "deuxième feuille en formation". Le stade de traitement pour les dicotylédones, est le stade "cotylédons étalés, première feuille vraie en développement".
(§3) Les pots sont alors traités par pulvérisation de bouillie en quantité correspondant à une dose volumique d'application de 500 l/ha et contenant la matière active à la concentration désirée.
(§4) La bouillie a été préparée de la même manière qu'à l'exemple A.
(§5) Les pots traités sont ensuite placés dans des bacs destinés à recevoir l'eau d'arrosage, en subirrigation, et maintenus pendant 24 jours à température ambiante sous 70 % d'humidité relative.
(§6) Au bout de 24 jours, on mesure un pourcentage (D) de destruction du nombre de pieds dans le pot traité par rapport au nombre de plantes dans les pots non traités (témoin). On mesure, sur les plantes traitées restantes, le pourcentage de réduction de taille (RT) par rapport aux plantes témoin.
(§7) Le pourcentage de volume foliaire non détruit par le produit est donc donné par la formule : [formula]
(§8) Cette valeur A est transformée en notation de 0 à 5 selon l'échelle suivante :
(§9) Ainsi, un produit est jugé comme sélectif vis à vis de la culture lorsque la valeur A notée est de 0 ou 1.
(§10) Les résultats obtenus sont présentés dans l'exemple C pour des doses d'application comprises entre 0,5 et 4 kg de matière active par hectare selon les produits.

Oryza sativa = assay: as above; details: crop (Riz), 24 days, score 0-5, 0 or 1 = selective; also: ranges in brackets are in %
Excerpt: as §1, §2, §3, §4, §5, §6, §7, §8, §9, §10

Ipomea pupurea = assay: as above; details: 576 h
Excerpt: as §1, §2, §3, §4, §5, §6, §7, §8, §9, §10

Solanum nigrum [1] = assay: as above; details: 576 h
Excerpt: as §1, §2, §3, §4, §5, §6, §7, §8, §9, §10

Viola tricolor = assay: as above; details: 1000 g/ha, 576 h
Excerpt: as §1, §2, §3, §4, §5, §6, §7, §8, §9, §10

Sesbania exaltata = assay: as above; details: 576 h
Excerpt: as §1, §2, §3, §4, §5, §6, §7, §8, §9, §10

Xanthium pennsylvanicum = assay: as above; details: 576 h
Excerpt: as §1, §2, §3, §4, §5, §6, §7, §8, §9, §10

Triticum aestivum = assay: as above; details: crop (Blé), 24 days, score 0-5, 0 or 1 = selective; also: ranges in brackets are in %
Excerpt: as §1, §2, §3, §4, §5, §6, §7, §8, §9, §10

Convolvulus arvensis = details: post-emergence, 1000 g/ha, 576 h
Excerpt: as §1, §2, §3, §4, §5, §6, §7, §8, §9, §10

Polygonum convolvulus = details: 1000 g/ha, 576 h
Excerpt: as §1, §2, §3, §4, §5, §6, §7, §8, §9, §10

Chrysanthemum segetum = details: post-emergence, 1000 g/ha, 576 h
Excerpt: as §1, §2, §3, §4, §5, §6, §7, §8, §9, §10

Ipomea purpurea = assay: Example B: post-emergence herbicidal application, pot test; details: 4000 g/ha, 576 h
Excerpt: as §1
as §2, with “formation ".” for “formation".”
as §3
(§11) La bouille a été préparée de la même manière qu'à l'exemple A.
as §5, §6
(§12) Le pourcentage du volume foliaire non détruit par le produit est donc donné par la formule : [formula]
as §8
(§13) Les résultats obtenus sont présentés après le tableau A pour des doses d'application de 4000 g/ha.

Echinochloa crusgalli = assay: as above; details: 4000 g/ha, 576 h
Excerpt: as §1
as §2, with “formation ".” for “formation".”
as §3, §11, §5, §6, §12, §8, §13

Digitaria sanguinalis = assay: as above; details: 4000 g/ha, 576 h
Excerpt: as §1
as §2, with “formation ".” for “formation".”
as §3, §11, §5, §6, §12, §8, §13

Solanum nigrum [2] = assay: as above; details: 4000 g/ha, 576 h
Excerpt: as §1
as §2, with “formation ".” for “formation".”
as §3, §11, §5, §6, §12, §8, §13

Sinapis alba [3] = assay: as above; details: 4000 g/ha, 576 h
Excerpt: as §1
as §2, with “formation ".” for “formation".”
as §3, §11, §5, §6, §12, §8, §13

Sinapis alba [4] = assay: Example C: selectivity test in major crops, post-emergence application; details: 500 g/ha, 576 h
Excerpt: as §1, §2, §3, §4, §5, §6, §7, §8, §9, §10

Lolium multiflorum = assay: Example B: post-emergence herbicidal application, pot test; details: 4000 g/ha, 576 h
Excerpt: as §1
as §2, with “formation ".” for “formation".”
as §3, §11, §5, §6, §12, §8, §13

mauvaises herbes [5] = assay: Procedure 2 d): weed control, pre-emergence; details: 4000 g/ha (procédé 2D), visual rating 20 to 24 days after spraying, vs control pots
Excerpt: (§14) Des quantités appropriées des composés d'essai ont été dissoutes dans de l'acétone pour obtenir des solutions équivalant à des taux d'application de 250, 1000 ou 4000 g de composé d'essai par hectare (g/ha).
Les graines ont été semées dans des pots en matière plastique de 70 mm de côté et 75 mm de profondeur, dans de la terre non stérile provenant de Boarded Barns Farm ou un type de terre similaire provenant d'une source convenable. Les quantités de graines par pot étaient les suivantes :
Les composés de la présente invention ont été appliqués à la surface du sol, contenant les semences, de la manière décrite dans le paragraphe (a). Un seul pot de chaque plante cultivée et de chaque mauvaise herbe a été attribué à chaque traitement, en association avec des témoins n'ayant pas subi de pulvérisation et des témoins ayant subi une pulvérisation avec de l'acétone seule. Après traitement, les pots ont été maintenus dans une serre et ont été arrosés par aspersion pendant 3 jours, puis par une sous- irrigation controlée. L'évaluation visuelle des dégats infligés aux plantes cultivées a été effectuée 20 à 24 jours après pulvérisation. Les résultats ont été exprimés en pourcentage de réduction de croissance ou d'endommagement des plantes cultivées ou des mauvaises herbes, comparativement aux plantes présentes dans les pots témoins.

mauvaises herbes [6] = details: post-emergence, 4000 g/ha
Excerpt: as §14
Les mauvaises herbes et les plantes cultivées ont été semées directement dans du compost de mise en pot John Innes dans des pots de 75 mm de profondeur et 70 mm de côté, sauf en ce qui concerne l'espèce du genre Amaranthus qui a été repiquée au stade de jeunes plants de semis et transférée dans les pots une semaine avant plulvérisation. Puis les plantes ont été cultivées dans la serre jusqu'à ce qu'elles soient prêtres à subir une pulvérisation avec les composés d'essai. Le nombre de plantes par pot étaient les suivants :
Les composés d'essai ont été appliqués aux plantes de la manière décrite dans le paragraphe (a). Un seul pot de chaque espèce de plante cultivée et de chaque espèce de mauvaise herbe a été attribué à chaque traitement, en association avec des témoins n'ayant pas subi de pulvérisation et des témoins ayant subi une pulvérisation avec de l'acétone seule.
Après traitement, les pots ont été maintenus dans une serre et ont été arrosés une fois par aspersion au bout de 24 heures, puis par sous - irrigation contrôlée. L'évaluation visuelle des dégâts infligés aux plantes cultivées et de la destruction des mauvaises herbes a été effectué 20 à 24 jours après pulvérisation. Les résultats ont été exprimés en pourcentage de réduction de croissance ou d'endommagement des plantes cultivées ou des mauvaises herbes, comparativement aux plantes présentes dans les pots témoins.

Compound: CN(C)S(=O)(=O)n1c(-c2ncccc2C(=O)O)nc2cc(Cl)ccc21 [compound 84]
- ACTIVITE HERBICIDE DE POST LEVEE Z E A (Zea mays; dose 1 kg/ha): 1 (70 à 90)
- ACTIVITE HERBICIDE DE POST LEVEE O R Y (Oryza sativa; dose 1 kg/ha): 1 (70 à 90)
- ACTIVITE HERBICIDE DE POST LEVEE I P O (Ipomea pupurea; 1000 g/ha): 4 (10 à 30)
- ACTIVITE HERBICIDE DE POST LEVEE S O L (Solanum nigrum [1]; 1000 g/ha): 5 (O à 10)
- ACTIVITE HERBICIDE DE POST LEVEE V I O (Viola tricolor): 2 (50 à 70)
- ACTIVITE HERBICIDE DE POST LEVEE S E S (Sesbania exaltata; 1000 g/ha): 5 (O à 10)
- ACTIVITE HERBICIDE DE POST LEVEE X A N (Xanthium pennsylvanicum; 1000 g/ha): 3 (30 à 50)
- ACTIVITE HERBICIDE DE POST LEVEE T R Z (Triticum aestivum; dose 1 kg/ha): 1 (70 à 90)
- ACTIVITE HERBICIDE DE POST LEVEE C O N (Convolvulus arvensis): 5 (O à 10)
- ACTIVITE HERBICIDE DE POST LEVEE P O L (Polygonum convolvulus): 4 (10 à 30)
- ACTIVITE HERBICIDE DE POST LEVEE C H Y (Chrysanthemum segetum): 5 (O à 10)
- ACTIVITE DE POST-LEVEE IPO (Ipomea purpurea): 3 (30 à 50)
- ACTIVITE DE POST-LEVEE ECH (Echinochloa crusgalli): 0 (90 à 100)
- ACTIVITE DE POST-LEVEE DIG (Digitaria sanguinalis): 0 (90 à 100)
- ACTIVITE DE POST-LEVEE SOL (Solanum nigrum [2]): 5 (O à 10)
- ACTIVITE DE POST-LEVEE SIN (Sinapis alba [3]): 5 (O à 10)

Compound: CN(C)S(=O)(=O)n1nc(-c2cccc(Cl)c2)nc1-c1ncccc1C(=O)O [compound 9]
- ACTIVITE HERBICIDE DE POST LEVEE Z E A (Zea mays; dose 0,5 kg/ha): 2 (50 à 70)
- ACTIVITE HERBICIDE DE POST LEVEE O R Y (Oryza sativa; dose 0,5 kg/ha): 1 (70 à 90)
- ACTIVITE HERBICIDE DE POST LEVEE I P O (Ipomea pupurea; 500 g/ha): 3 (30 à 50)
- ACTIVITE HERBICIDE DE POST LEVEE S O L (Solanum nigrum [1]; 500 g/ha): 4 (10 à 30)
- ACTIVITE HERBICIDE DE POST LEVEE S E S (Sesbania exaltata; 500 g/ha): 5 (O à 10)
- ACTIVITE HERBICIDE DE POST LEVEE S I N (Sinapis alba [4]): 3 (30 à 50)
- ACTIVITE HERBICIDE DE POST LEVEE X A N (Xanthium pennsylvanicum; 500 g/ha): 3 (30 à 50)
- ACTIVITE HERBICIDE DE POST LEVEE T R Z (Triticum aestivum; dose 0,5 kg/ha): 0 (90 à 100)
- ACTIVITE DE POST-LEVEE IPO (Ipomea purpurea): 3 (30 à 50)
- ACTIVITE DE POST-LEVEE ECH (Echinochloa crusgalli): 2 (50 à 70)
- ACTIVITE DE POST-LEVEE LOL (Lolium multiflorum): 0 (90 à 100)
- ACTIVITE DE POST-LEVEE DIG (Digitaria sanguinalis): 2 (50 à 70)
- ACTIVITE DE POST-LEVEE SOL (Solanum nigrum [2]): 3 (30 à 50)
- ACTIVITE DE POST-LEVEE SIN (Sinapis alba [3]): 4 (10 à 30)

Compound: C#CCOC(=O)c1cccnc1-c1nc2ccccc2n1S(=O)(=O)N(C)C [compound 99]
- réduction de la croissance d'une ou plusieurs des espèces de mauvaises herbes (mauvaises herbes [5]): ≥ 90%
- destruction d'une ou plusieurs des espèces de mauvaises herbes (mauvaises herbes [6]): ≥ 90%
